Data published in US10538496B2, “Methods using HDAC11 inhibitors” (FORMA Therapeutics, Inc., priority 2016, dated 2020).

Experiments:
HEL 92.1.7 cells = test: Cell proliferation assay (CCK8); format: cell-based; settings: 48h
Method: (§1) This example describes inhibition of in vitro cell proliferation with exemplary HDAC11 inhibitors. The effects of selective HDAC11 inhibitors on cell proliferation were measured in cell lines containing the MPN-associated mutations MPL W515L (Ba/F3 MPL W515L) and JAK2 V617F (Ba/F3 JAK2 V617F, HEL 92.1.7, SET-2). HEL 92.1.7 and SET-2 cells were purchased from the ATCC and DSMZ, respectively. Ba/F3 cells overexpressing either MPLW515L or JAK2V617F, which were cytokine independent, were generated by transforming Ba/F3 cells with retroviruses overexpressing either MPL W515L or JAK2V617F. For survival assays, cells were seeded in 96-well plates at the density of 0.1 million/ml with addition of indicated compounds and incubated at 37° C. for 48h. CCK8 solution (Dojindo, Rockville, Md.) was added and absorbance at 450 nm was measured after 3 hours of incubation. Readings were normalized to dimethylsulfoxide (DMSO)-treated wells.

SET-2 cells = test: Cell proliferation assay (CCK8); format: cell-based; settings: Ruxolitinib-resistant SET-2
Method: as §1

[1] = system: erythroid cells from MPN patients; test: Colony formation assay from patient samples; format: cell-based, human; settings: two patient samples (ET; PV, Ruxolitinib resistant)
Method: (§2) To determine the effects of selective HDAC11 inhibition on MPN patient samples, the effects of HDAC11 inhibitors were evaluated in a colony formation assay with erythroid or myeloid cells from MPN patients. Peripheral blood was obtained from MPN patients consented through the Moffitt Cancer Center Total Cancer Care protocol (MCC 14690). Blood was treated with HetaSep™ (STEMCELL Technologies, Inc.) to remove the majority of red blood cells. Peripheral blood mononuclear cells (PBMCs) were isolated by ficoll separation. PBMCs (1-4×105) were then plated in 1 mL of methylcellulose medium containing rhSCF, rhIL-3, and granulocyte-macrophage colony-stimulating factor (rhGM-CSF) (MethoCult™ #H4534; STEMCELL Technologies, Inc.). All drug treated samples contained 0.1% DMSO as the final concentration. Cells were incubated at 37° C. and 5% CO2 in a humidified incubator. Colonies were scored 12 to 14 days after plating.

[2] = system: myeloid cells from MPN patients; test: Colony formation assay from patient samples; format: cell-based, human; settings: two patient samples (ET; PV, Ruxolitinib resistant)
Method: as §2

Ba/F3 JAK2 V617F cells = test: Cell proliferation assay (CCK8); format: cell-based; settings: Mus musculus, BaF3; Ba/F3 JAK2V617F, 48h; read-out: IC50, inhibition of proliferation
Method: as §1

Ba/F3 MPL W515L cells = test: Cell proliferation assay (CCK8); format: cell-based; settings: Mus musculus, BaF3; Ba/F3 MPLW515L, 48h; read-out: IC50, inhibition of proliferation
Method: as §1

H1650 SP cells = test: Tube formation assay with stem-like side population NSCLC cells; format: cell-based; settings: on Matrigel, overnight
Method: The angiogenic tubule assay was performed with the sorted side population cells to analyze vascular mimicry. The H1650 side population cells were sorted as mentioned above and they were further grown on Matrigel (BD Biosciences) to form angiogenic tubule-like structures. 100 μl of thawed Matrigel was layered on the wells of 96-well tissue culture plates and allowed to polymerize at 37° C. for 30 min. Sorted H1650 SP cells were layered (12000 cells/100 μl of Matrigel) on the polymerized matrigel and incubated overnight at 37° C. Tubule formation was assessed under bright field using EVOS FL microscope system and images were acquired with EVOS software (Life Technologies Inc., USA). For the treatment with HDAC11 inhibitors, appropriate concentrations of the compounds were added to the cells when they were seeded on Matrigel for the tubule formation assay.

A549 cells = test: Cell migration (scratch) assay; format: cell-based
Method: The effects of HDAC11 inhibition on cell migration were determined using a scratch assay. A549 cells (120,000-150,000 cells/2 ml/well) were grown in 6-well tissue culture plates (BD Biosciences). A scratch was made using a sterile 2 μl pipette tip in each well. The 10% FBS containing medium was added to the wells after a wash with DPBS. To assess the effect of the HDAC11 inhibitors on cell migration, the inhibitors were added in the medium at appropriate concentrations. The cells were further incubated at 37° C. The images were taken on Day 0 and after every 24 hours using EVOS FL microscope system and EVOS software (Life Technologies Inc) and the cell migration was compared to the Day 0 of treatment.

[3] = system: H1650 cells co-cultured with primary CAFs from human lung cancer; test: Co-culture assay with cancer cells and cancer associated fibroblasts; format: cell-based
Method: The effects of selective HDAC11 inhibition on cancer cells and cancer associated fibroblasts (CAFs) were determined in a co-culture assay. The cells were first trypsinized and collected in serum containing medium and were further incubated in same media at 37° C. for 15-20 min for recovery. The cells were resuspended in serum free media at 1×10^6 cells/ml density and stained with 10 uM of cytotracker green (Cancer associated fibroblasts) or cytotracker red dye (H1650 cells) (Life Technologies Inc) at 37° C. for 90 min. The stained cells were washed twice with serum free medium to remove excess dye at 1500 rpm for 5 min. The cytotracker green stained CAFs were mixed with cytotracker red stained H1650 cells in 1:1 ratio and grown in 96-well tissue culture plate overnight. The HDAC11 inhibitors were then added to the mixed adhered cells (CAFs+H1650) at appropriate concentrations. The images were taken on Day 0 and after every 24 hours using EVOS FL microscope system and EVOS software (Life Technologies Inc).

| Structure (SMILES) | growth of the HEL 92.1.7 cell line (HEL 92.1.7 cells) | growth of a SET-2 cell line generated to be Ruxolitinib-resistant (SET-2 cells) | growth of colonies from erythroid cells [1] | growth of colonies from myeloid cells [2] | IC50 (Ba/F3 JAK2 V617F cells) [µM] | IC50 (Ba/F3 MPL W515L cells) [µM] | tubule formation by H1650 SP cells (H1650 SP cells) | A549 cell migration (A549 cells) | growth of H1650 cells co-cultured with primary CAFs ([3]; 1:1 co-culture) | effects on CAFs ([3]; 1:1 co-culture with H1650 cells) |
| --- | --- | --- | --- | --- | --- | --- | --- | --- | --- | --- |
| O=C(NO)c1cccc(Nc2nc3cc(Cl)c(Cl)cc3o2)c1 [HDTK010, 3-((5,6-dichlorobenzo[d]oxazol-2-yl)amino)-N-hydroxybenzamide] | inhibited the growth | inhibited the growth | reduced the growth of colonies | reduced the growth of colonies | – | – | – | – | – | – |
| O=C(NO)c1cccc2c1C[C@]1(CCN(Cc3ccc(Cl)c(C(F)(F)F)c3)C1=O)C2 [HDTK054, (S)-1′-(4-chloro-3-(trifluoromethyl)benzyl)-N-hydroxy-2′-oxo-1,3-dihydrospiro[indene-2,3′-pyrrolidine]-4-carboxamide] | – | – | – | – | 1 to 10 | 1 to 10 | inhibited tubule formation | impaired A549 cell migration | inhibit the growth | minimal effects |
